Test results reported in patent US9072703B2 (Ipsen Pharma S.A.S., priority 2008, dated 2015).
Non-standard residues stand in square brackets, D forms with d. Residues, ends and D or L forms follow the SMILES beside them. No end group written: not given here. Ac6c = NC1(C(=O)O)CCCCC1; Nle = CCCC[C@H](N)C(=O)O; Ac5c = NC1(C(=O)O)CCCC1; Aib = CC(C)(N)C(=O)O

Experiments:
[1] = Human plasma half-life assay; assay type: in vitro ADME; conditions: 37° C., LC-MS, read-out: Human Plasma T½ (converted)
Experimental: (§1) B. Human and Rat Plasma Half-Life Assay
(§2) 50 μL was removed at various times, like at 0, 1, 2, 3, 4, 8, 24, 32, 48, 56, 72 hours, mixed with 5 μL formic acid and 150 μL acetonitrile in a microcentrifuge tube, vertexed, and centrifuged for 10 minutes at 10K rpm. The supernatant was transferred to an injection vial and analyzed by LC-MS. The LC-MS system consisted of an API4000 mass spectrometer with an ESI probe. Positive ion mode and full scan detection were used. HPLC separation was carried out on a Luna 3μ C8 (2), 2×30 mm column with a gradient from 90% A to 90% B in 10 minutes at a flow rate of 0.3 ml/min. Buffer A was 1% formic acid in water and buffer B was 1% formic acid acetonitrile.

[2] = Rat plasma half-life assay; assay type: in vitro ADME; conditions: 37° C., LC-MS, read-out: Rat Plasma T½ (converted)
Experimental: as §1, §2

Row | Molecule | half-life at 0.1 mg/ml [1] [min] | half-life at 0.1 mg/ml [2] [min]
1 | YAEGTFISDY[Ac5c]IAMDKIHQQDFVNWLLAQKGKKNDWKHNITQA-OH [Example 8, (A5c^11, Ala^43)hGIP(1-43)-OH] | 444 | 138
2 | CC[C@H](C)[C@H](NC(=O)[C@H](CCCCN)NC(=O)[C@H](CC(=O)O)NC(=O)[C@H](CCSC)NC(=O)[C@H](C)NC(=O)[C@@H](NC(=O)C1(NC(=O)[C@H](Cc2ccc(O)cc2)NC(=O)[C@H](CC(=O)O)NC(=O)[C@H](CO)NC(=O)[C@@H](NC(=O)[C@H](Cc2ccccc2)NC(=O)[C@@H](NC(=O)CNC(=O)[C@H](CCC(=O)O)NC(=O)[C@H](C)NC(=O)[C@@H](N)Cc2ccc(O)cc2)[C@@H](C)O)[C@@H](C)CC)CCCC1)[C@@H](C)CC)C(=O)N[C@@H](Cc1c[nH]cn1)C(=O)N[C@@H](CCC(N)=O)C(=O)N[C@@H](CCC(N)=O)C(=O)N[C@@H](CC(=O)O)C(=O)N[C@@H](Cc1ccccc1)C(=O)N[C@H](C(=O)N[C@@H](CC(N)=O)C(=O)N[C@@H](Cc1c[nH]c2ccccc12)C(=O)N[C@@H](CC(C)C)C(=O)N[C@@H](CC(C)C)C(=O)N[C@@H](C)C(=O)N[C@@H](CCC(N)=O)C(=O)N[C@@H](CCCCN)C(N)=O)C(C)C [Example 28, (A5c^11)hGIP(1-30)-NH2] (H-YAEGTFISDY[Ac5c]IAMDKIHQQDFVNWLLAQK-NH2; N-terminus assumed) | 396 | 144
3 | YAEGTFISDYSI[Aib][Nle]DKIHQQDFVNWLLAQKGKKNDWKHNITQF-OH [Example 9, (Aib^13, Nle^14, Phe^43)hGIP(1-43)-OH] | 414 | 78
4 | CCCCCCCCCCCCCCCC(=O)NCCC[C@H](NC(=O)[C@H](CCCCN)NC(=O)CNC(=O)[C@H](CCCCN)NC(=O)[C@H](CCC(N)=O)NC(=O)[C@H](C)NC(=O)[C@H](CC(C)C)NC(=O)[C@H](CC(C)C)NC(=O)[C@H](Cc1c[nH]c2ccccc12)NC(=O)[C@H](CC(N)=O)NC(=O)[C@@H](NC(=O)[C@H](Cc1ccccc1)NC(=O)[C@H](CC(=O)O)NC(=O)[C@H](CCC(N)=O)NC(=O)[C@H](CCC(N)=O)NC(=O)[C@H](Cc1c[nH]cn1)NC(=O)[C@@H](NC(=O)[C@H](CCCCN)NC(=O)[C@H](CC(=O)O)NC(=O)[C@H](CCSC)NC(=O)[C@H](C)NC(=O)[C@@H](NC(=O)C1(NC(=O)[C@H](Cc2ccc(O)cc2)NC(=O)[C@H](CC(=O)O)NC(=O)[C@H](CO)NC(=O)[C@@H](NC(=O)[C@H](Cc2ccccc2)NC(=O)[C@@H](NC(=O)CNC(=O)[C@H](CCC(=O)O)NC(=O)[C@H](C)NC(=O)[C@@H](N)Cc2ccc(O)cc2)[C@@H](C)O)[C@@H](C)CC)CCCC1)[C@@H](C)CC)[C@@H](C)CC)C(C)C)C(=O)N[C@@H](CC(N)=O)C(=O)N[C@@H](CC(=O)O)C(=O)N[C@@H](Cc1c[nH]c2ccccc12)C(=O)N[C@@H](CCCCN)C(=O)N[C@@H](Cc1c[nH]cn1)C(=O)N[C@@H](CC(N)=O)C(=O)N[C@H](C(=O)N[C@H](C(=O)N[C@@H](CCC(N)=O)C(=O)N[C@@H](Cc1c[nH]cn1)C(=O)O)[C@@H](C)O)[C@@H](C)CC [Example 42, [A5c^11, Orn^33(N—C(O)—(CH2)14—CH3), His^43]hGIP(1-43)-OH] | 378 | 1700
5 | YAEGTFISDY[Ac5c]IAMDKIHQQDFVNWLLAQKGKKNDWKHNITQT-OH [Example 10, (A5c^11, Thr^43)hGIP(1-43)-OH] | 474 | 126
6 | CC[C@H](C)[C@H](NC(=O)[C@H](CCCCN)NC(=O)[C@H](CC(=O)O)NC(=O)C1(NC(=O)[C@H](C)NC(=O)[C@@H](NC(=O)C2(NC(=O)[C@H](Cc3ccc(O)cc3)NC(=O)[C@H](CC(=O)O)NC(=O)[C@H](CO)NC(=O)[C@@H](NC(=O)[C@H](Cc3ccccc3)NC(=O)[C@@H](NC(=O)CNC(=O)[C@H](CCC(=O)O)NC(=O)[C@H](C)NC(=O)[C@@H](N)Cc3ccc(O)cc3)[C@@H](C)O)[C@@H](C)CC)CCCC2)[C@@H](C)CC)CCCC1)C(=O)N[C@@H](Cc1c[nH]cn1)C(=O)N[C@@H](CCC(N)=O)C(=O)N[C@@H](CCC(N)=O)C(=O)N[C@@H](CC(=O)O)C(=O)N[C@@H](Cc1ccccc1)C(=O)N[C@H](C(=O)N[C@@H](CC(N)=O)C(=O)N[C@@H](Cc1c[nH]c2ccccc12)C(=O)N[C@@H](CC(C)C)C(=O)N[C@@H](CC(C)C)C(=O)N[C@@H](C)C(=O)N[C@@H](CCC(N)=O)C(=O)N[C@@H](CCCCN)C(N)=O)C(C)C [Example 30, (A5c^11, 14)hGIP(1-30)-NH2] (H-YAEGTFISDY[Ac5c]IA[Ac5c]DKIHQQDFVNWLLAQK-NH2; N-terminus assumed) | 372 | 816
7 | YAEGTF[Ac6c]SDYSIA[Nle]DKIHQQDFVNWLLAQKGKKNDWKHNI[Ac6c]Q-OH [Example 17, (A6c^7, 41, Nle^14)hGIP(1-42)-OH] | 378 | 114
8 | YAEGTFISDY[Ac6c]IA[Ac6c]DKIHQQDFVNWLLAQKGKKNDWKHN[Ac6c]TQ-OH [Example 14, (A6c^11, 14, 40)hGIP(1-42)-OH] | 696 | 288
9 | CC[C@H](C)[C@H](NC(=O)[C@H](CCCCN)NC(=O)[C@H](CC(=O)O)NC(=O)[C@H](CCSC)NC(=O)[C@H](C)NC(=O)[C@@H](NC(=O)C1(NC(=O)[C@H](Cc2ccc(O)cc2)NC(=O)[C@H](CC(=O)O)NC(=O)[C@H](CO)NC(=O)[C@@H](NC(=O)[C@H](Cc2ccccc2)NC(=O)[C@@H](NC(=O)CNC(=O)[C@H](CCC(=O)O)NC(=O)[C@H](C)NC(=O)[C@@H](N)Cc2ccc(O)cc2)[C@@H](C)O)[C@@H](C)CC)CCCC1)[C@@H](C)CC)C(=O)N[C@@H](Cc1c[nH]cn1)C(=O)N[C@@H](CCC(N)=O)C(=O)N[C@@H](CCC(N)=O)C(=O)N[C@@H](CC(=O)O)C(=O)N[C@@H](Cc1ccccc1)C(=O)N[C@H](C(=O)N[C@@H](CC(N)=O)C(=O)N[C@@H](Cc1c[nH]c2ccccc12)C(=O)N[C@@H](CC(C)C)C(=O)N[C@@H](CC(C)C)C(=O)N[C@@H](C)C(=O)N[C@@H](CCC(N)=O)C(=O)N[C@@H](CCCCN)C(=O)NCC(=O)N[C@@H](CCCCN)C(=O)N[C@@H](CS)C(=O)N[C@@H](CC(N)=O)C(=O)N[C@@H](CC(=O)O)C(=O)N[C@@H](Cc1c[nH]c2ccccc12)C(=O)N[C@@H](CCCCN)C(=O)N[C@@H](Cc1c[nH]cn1)C(=O)N[C@@H](CC(N)=O)C(=O)N[C@H](C(=O)NC1(C(=O)N[C@@H](CCC(N)=O)C(N)=O)CCCC1)[C@@H](C)CC)C(C)C [Example 32, (A5c^11, 41, Cys^33)hGIP(1-42)-NH2] | 690 | 528
10 | CCCC[C@H](NC(=O)[C@H](C)NC(=O)[C@@H](NC(=O)C1(NC(=O)[C@H](Cc2ccc(O)cc2)NC(=O)[C@H](CC(=O)O)NC(=O)[C@H](CO)NC(=O)[C@@H](NC(=O)[C@H](Cc2ccccc2)NC(=O)[C@@H](NC(=O)CNC(=O)[C@H](CCC(=O)O)NC(=O)[C@H](C)NC(=O)[C@@H](N)Cc2ccc(O)cc2)[C@@H](C)O)[C@@H](C)CC)CCCC1)[C@@H](C)CC)C(=O)N[C@@H](CC(=O)O)C(=O)N[C@@H](CCCCN)C(=O)N[C@H](C(=O)N[C@@H](Cc1c[nH]cn1)C(=O)N[C@@H](CCC(N)=O)C(=O)N[C@@H](CCC(N)=O)C(=O)N[C@@H](CC(=O)O)C(=O)N[C@@H](Cc1ccccc1)C(=O)N[C@H](C(=O)N[C@@H](CC(N)=O)C(=O)N[C@@H](Cc1c[nH]c2ccccc12)C(=O)N[C@@H](CC(C)C)C(=O)N[C@@H](CC(C)C)C(=O)N[C@@H](C)C(=O)N[C@@H](CCC(N)=O)C(=O)N[C@@H](CCCCN)C(=O)NCC(=O)N[C@@H](CCCCN)C(=O)N[C@@H](CCCCN)C(=O)N[C@@H](CC(N)=O)C(=O)N[C@@H](CC(=O)O)C(=O)N[C@@H](Cc1c[nH]c2ccccc12)C(=O)N[C@@H](CCCCN)C(=O)N[C@@H](Cc1c[nH]cn1)C(=O)N[C@@H](CC(N)=O)C(=O)N[C@H](C(=O)N[C@H](C(=O)N[C@@H](CCC(N)=O)C(=O)N[C@@H](Cc1c[nH]cn1)C(=O)O)[C@@H](C)O)[C@@H](C)CC)C(C)C)[C@@H](C)CC [Example 21, (A5c^11, Nle^14, His^43)hGIP(1-43)-OH] | 666 | 168
11 | YAEGTF[Ac6c]SDYSIAMDKIHQQDFVNWLLAQKGKKNDWKHNI[Ac6c]Q-OH [Example 16, (A6c^7, 41)hGIP(1-42)-OH] | 390 | 78
12 | CCCCCCCCCCCC(=O)NCCC[C@H](NC(=O)[C@H](CCCCN)NC(=O)CNC(=O)[C@H](CCCCN)NC(=O)[C@H](CCC(N)=O)NC(=O)[C@H](C)NC(=O)[C@H](CC(C)C)NC(=O)[C@H](CC(C)C)NC(=O)[C@H](Cc1c[nH]c2ccccc12)NC(=O)[C@H](CC(N)=O)NC(=O)[C@@H](NC(=O)[C@H](Cc1ccccc1)NC(=O)[C@H](CC(=O)O)NC(=O)[C@H](CCC(N)=O)NC(=O)[C@H](CCC(N)=O)NC(=O)[C@H](Cc1c[nH]cn1)NC(=O)[C@@H](NC(=O)[C@H](CCCCN)NC(=O)[C@H](CC(=O)O)NC(=O)[C@H](CCSC)NC(=O)[C@H](C)NC(=O)[C@@H](NC(=O)C1(NC(=O)[C@H](Cc2ccc(O)cc2)NC(=O)[C@H](CC(=O)O)NC(=O)[C@H](CO)NC(=O)[C@@H](NC(=O)[C@H](Cc2ccccc2)NC(=O)[C@@H](NC(=O)CNC(=O)[C@H](CCC(=O)O)NC(=O)[C@H](C)NC(=O)[C@@H](N)Cc2ccc(O)cc2)[C@@H](C)O)[C@@H](C)CC)CCCC1)[C@@H](C)CC)[C@@H](C)CC)C(C)C)C(=O)N[C@@H](CC(N)=O)C(=O)N[C@@H](CC(=O)O)C(=O)N[C@@H](Cc1c[nH]c2ccccc12)C(=O)N[C@@H](CCCCN)C(=O)N[C@@H](Cc1c[nH]cn1)C(=O)N[C@@H](CC(N)=O)C(=O)N[C@H](C(=O)N[C@H](C(=O)N[C@@H](CCC(N)=O)C(=O)N[C@@H](Cc1c[nH]cn1)C(=O)O)[C@@H](C)O)[C@@H](C)CC [Example 35, [A5c^11, Orn^33(N—C(O)—(CH2)10—CH3), His^43]hGIP(1-43)-OH] | 570 | 1020
